From EP2119770B1, “Production of alpha-oxyfunctionalized carbonyl compounds” (priority 2008, dated 2009)

Tests used:
Type in all cases: biochemical
Gox0313 = target: T1, Gox0313 (Gluconobacter oxydans, UniProt Q5FU50); assay: Enzyme activity assay (rate of NAD(P)H decrease at 340 nm), Gox0313; conditions: 10 mM substrate; for Specific Activity: Tab. 6, Gox0313, substrate reduction, cofactor NADH, pH 7.0, 30 °C; for Activity: Table 3, Gox0313, K-phosphate buffer pH 7.0, 0.05 mM NAD(P)H, 30 °C
T1 sequence (Q5FU50 1-343): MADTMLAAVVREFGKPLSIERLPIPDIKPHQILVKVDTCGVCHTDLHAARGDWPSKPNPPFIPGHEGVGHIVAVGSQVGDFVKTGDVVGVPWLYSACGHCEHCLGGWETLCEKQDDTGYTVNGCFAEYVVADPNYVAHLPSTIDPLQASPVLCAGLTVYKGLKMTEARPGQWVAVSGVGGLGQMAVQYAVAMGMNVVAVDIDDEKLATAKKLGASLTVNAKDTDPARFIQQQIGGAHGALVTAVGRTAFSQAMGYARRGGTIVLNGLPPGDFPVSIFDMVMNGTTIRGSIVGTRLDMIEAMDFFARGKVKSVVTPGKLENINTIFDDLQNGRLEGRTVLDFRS
Outline: (§1)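 Purified enzymes assayed at 30 °C in 40 mM potassium phosphate pH 7.0 with 10 mM substrate and NAD(P)H (0.025 mM, or 0.05 mM in the standard mixture), started by adding enzyme or substrate. Activity followed as the rate of NAD(P)H decrease at 340 nm; one unit = 1 µmol pyridine nucleotide converted per min; protein measured by Bradford.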

Gox0644 [1] = target: T2, Gox0644 (Gluconobacter oxydans, UniProt Q5FT75); assay: Enzyme activity assay (rate of NAD(P)H decrease at 340 nm), Gox0644; conditions: 10 mM substrate; for Specific Activity: Tab. 4, Gox0644, cofactor NADPH, pH 7.0, 30 °C; for Activity: Table 3, Gox0644, K-phosphate buffer pH 7.0, 0.05 mM NAD(P)H, 30 °C
Method: (§2) Reactions were induced by addition of enzyme or substrate. One unit of enzyme activity was defined as the amount of enzyme catalyzing the conversion of 1 µmol of pyridine nucleotide per min at 30 °C.
as §2
For each enzyme (Gox0313, Gox0502, Gox0644, Gox0646, Gox1615, Gox2107, and Gox2684 respectively), fresh enzyme preparations were used to validate the substrate spectrum and the kinetic activity. […] Reactions were induced by addition of enzyme or substrate. One unit of enzyme activity was defined as the amount of enzyme catalyzing the conversion of 1 µmol of pyridine nucleotide per min at 30 °C. […] Table 3: Summary of enzymatic activities with α-diketones, α-ketoaldehydes and /or α-ketoesters

Gox1615 = target: T3, Gox1615 (Gluconobacter oxydans, UniProt Q5FQJ0); assay: Enzyme activity assay (rate of NAD(P)H decrease at 340 nm), Gox1615; conditions: 10 mM substrate; for Specific Activity: Tab. 5, Gox1615, cofactor NADPH, pH 7.0, 30 °C; for Activity: Table 3, Gox1615, K-phosphate buffer pH 7.0, 0.05 mM NAD(P)H, 30 °C
T3 sequence (Q5FQJ0 1-332): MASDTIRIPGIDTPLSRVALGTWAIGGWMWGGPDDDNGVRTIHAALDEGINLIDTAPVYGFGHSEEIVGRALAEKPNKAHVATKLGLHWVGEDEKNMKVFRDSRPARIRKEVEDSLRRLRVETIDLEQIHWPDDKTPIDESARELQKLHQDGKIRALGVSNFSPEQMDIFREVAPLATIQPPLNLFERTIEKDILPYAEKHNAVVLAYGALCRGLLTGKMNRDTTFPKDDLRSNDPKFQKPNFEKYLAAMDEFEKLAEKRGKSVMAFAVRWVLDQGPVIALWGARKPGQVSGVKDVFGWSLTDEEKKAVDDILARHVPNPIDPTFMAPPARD
Outline: as §1

Gox0644 [2] = target: T2, Gox0644; assay: Regioselectivity of bioconversion, product determined by NMR, Gox0644; conditions: bioconversion with Gox1122 cofactor regeneration, NMR analysis
Source text: Cofactor regeneration: A prerequisite for the production of α-hydroxycarbonyl compounds is the regeneration of the expensive coenzymes and the stability of the protein catalysts. By coupling two coenzyme-dependent enzyme reactions, NADPH can be continuously regenerated. […] For this purpose, we used a combined enzymatic reaction between the NADPH-dependent oxidoreductases that form α-hydroxycarbonyl compounds and the aldehyde dehydrogenase GOX1122 (see Schweiger, P. et al., J. Mol. Microbiol. Biotechnol. 13:147-155 (2007)) that produces the reduced cofactor in the course of acetaldehyde oxidation. […] The biotransformation was performed in a batch process (total volume 2.5 ml 40 mM potassium phosphate buffer pH 7). 30 µg of purified Gox1122 and of NADPH-dependent oxidoreductases and 50 µM NADPH were added. The substrate concentration in the beginning was 20 mM 2,3-pentanedione and 20 mM acetaldehyde. Fresh substrates were added every 60 min (20 mM each).
NMR: The 2.5 ml bioconversion was extracted with two times equal volume of d-chloroform. ^1H and ^13C NMR spectra were recorded on a DPX 300 Spectrometer (300 MHz) and referenced to the CDCl3 internal standard. Chemical samples analyzed with Bruker NMR Suite 2.5 software constructed final product structures.
2.7 Regioselectivity of GOX0644 and GOX1615: Tab. […] Tab. 10: Summary of Regioselectivity
5 ml bioconversions for determining regioselectivity were set up with 2 mg of proteins Gox0644 and Gox1122, 40 mM potassium phosphate buffer, pH 7.0, 50 µM NADPH. Substrates (20 mM 2,3 pentanedione and acetaldehyde) were added every 30 min. The reaction was followed for 3 h to produce quantities between 40-60 mg of product (hydroxy-pentanone).

| Product (regioselective reduction) (Gox0644 [2]) | Structure (SMILES) | Specific Activity (Gox0313) [U/mg] | Activity (Gox0313) [U/mg] | Specific Activity (Gox0644 [1]) [U/mg] | Activity (Gox0644 [1]) [U/mg] | Specific Activity (Gox1615) [U/mg] | Activity (Gox1615) [U/mg] | Product (regioselective reduction) (Gox0644 [2]; listed as 2,3 pentanedione) |
| --- | --- | --- | --- | --- | --- | --- | --- | --- |
| 2-hydroxy-hexane-3-one | CCCC(=O)C(C)=O [2,3-hexanedione] | 19.6 | 19.6 | 50.1 | 50.1 | 6.5 | 6.5 |  |
|  | CCC(=O)C(=O)CC [3,4-hexanedione] | 19.5 | 19.5 | 7.3 | 7.3 | 2 | 2.0 |  |
|  | CC(=O)C=O [methylglyoxal] | 10.6 | 10.6 | 3.4 | 3.4 | 19.3 | 19.3 |  |
| 2-hydroxy-2-phenylacetaldehyde | O=CC(=O)c1ccccc1 [phenylglyoxal] | 0.5 | 0.5 | 66.0 | 66.0 | 19.1 | 19.1 |  |

| Structure (SMILES) | Product (regioselective reduction) (Gox0644 [2]) | Specific Activity (Gox0313) [U/mg] | Activity (Gox0313) [U/mg] | Specific Activity (Gox0644 [1]) [U/mg] | Activity (Gox0644 [1]) [U/mg] | Specific Activity (Gox1615) [U/mg] | Activity (Gox1615) [U/mg] | Product (regioselective reduction) (Gox0644 [2]; listed as 2,3 pentanedione) |
| --- | --- | --- | --- | --- | --- | --- | --- | --- |
| CCC(=O)C(C)=O [2,3-pentanedione] | 2-hydroxy-pentane-3-one | 35.9 | 35.9 | 89.3 | 89.3 | 6.2 | 6.2 | 2-hydroxy-pentan-3-one |
